# Measured values: PubChem BioAssay AID1053123 (Broad Institute, 2014)
# Test system: CHO ER-LucT cells, luciferase glycosylation gel shift, 24 h
# Experiment: luciferase glycan loss by western gel shift – CHO ER-LucT cells, western blot, cherry-picked, dose response (AID 1053123)
row,Compound,AC50 [nM]
1,Cc1cnc(NC(=O)c2cc(S(=O)(=O)N(C)C)ccc2N2CCCC2)s1,7640
2,Cc1cnc(NC(=O)c2cc(S(=O)(=O)N(C)C)ccc2N2CCC2)s1,10500
3,Cc1cnc(NC(=O)c2cc(S(=O)(=O)N3CCCC3)ccc2N2CCCC2)s1,2520
4,Cc1cnc(NC(=O)c2cc(S(=O)(=O)N3CCOCC3)ccc2N2CCCC2)s1,950
5,Cc1csc(NC(=O)c2cc(S(=O)(=O)N(C)C)ccc2N2CCCC2)n1,395
